{
  "source": "paper PMC7600788",
  "about": "“Sequence Permutation Generates Peptides with Different Antimicrobial and Antibiofilm Activities” (Pharmaceuticals, 2020)",
  "key": {"K. pneumonia ATCC 13883": {"tested_on": "K. pneumonia ATCC 13883", "conditions": "cited from earlier work", "from_the_text": "Table 2 Antibacterial activities of the WW peptides against various bacteria. | column: Minimal Inhibitory Concentration (MIC, μM) / KP ^a"}, "S. aureus USA300 LAC [1]": {"tested_on": "S. aureus USA300 LAC", "assay": "Inhibition of biofilm attachment (XTT)", "assay_type": "cell-based, Staphylococcus aureus", "conditions": "concentration series, Figure 6A", "from_the_text": "Antimicrobial effects of the peptides are different on diverse forms of bacteria. The free and motile forms cultivated in laboratories are the planktonic bacteria onto which the peptides and antibiotics can have direct effects. However, the activity of the microbicides can be reduced to the biofilm forms where bacteria are less exposed and hidden inside the shield. The development of the biofilms starts with the attachment of the individual cells on the substratum followed by biofilm growth and maturation into more solid biomass. We tested the ability of WW295 and WW298 in fighting the biofilms of S. aureus USA300 LAC at the two stages. […] These 96-well commercial plates were pre-treated commercially with tissue culture to enhance cell adhesion.\nThis experiment was performed to measure the ability of the peptide to inhibit bacterial attachment, the initial step for biofilm formation. In short, an overnight culture of S. aureus USA300 was grown in TSB media to an optical density (600 nm) of ∼1.0. […] Live cells in the biofilms were then quantitated using XTT [2,3-bis(2-methyloxy-4-nitro-5-sulfophenyl)-2H-tertazolium-5-carboxanilide] assay by following the manufacturer’s instructions with modifications. […] Absorbance at 450 nm (only media with XTT containing wells served as the blank) was obtained using a Chromate^TM microtiter plate reader. […]"}, "S. aureus Mu50": {"tested_on": "S. aureus Mu50", "assay_type": "cell-based, Staphylococcus aureus", "conditions": "Mu50", "summary_of_the_method": "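Broth microdilution: log-phase cultures diluted to OD600 ~0.001 were treated with two-fold peptide dilutions and incubated overnight at 37 °C, then read at 630 nm. MBC was the lowest concentration giving no growth when wells at or above MIC were plated.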"}, "S. aureus USA300 LAC [2]": {"tested_on": "S. aureus USA300 LAC", "assay": "Disruption of 24 h established biofilms (XTT)", "assay_type": "cell-based, Staphylococcus aureus", "conditions": "12.5 µM, highest concentration tested, 24 h treatment", "procedure": "We also compared the effects of the peptides on established biofilms (24 h). […] When cells are alive (in the absence of peptide), the cell-permeant calcein-AM dye could enter the cells and gave green color as a consequence of the removal of acetoxymethyl (AM) esters by intracellular esterase (Figure 7A). When the cells were dead due to membrane damage by the peptide, the red dye ethidium homodimer (non-membrane permeable) could enter the cell and become red by binding to nucleic acids (Figure 7B).\nThe antibiofilm activity of the peptide against 24 h established biofilms was evaluated as previously described. In short, S. aureus USA300 LAC (10^5 CFU/mL) was made from exponential phase bacteria in TSB media and 180 μL were distributed to each well of the microtiter plate (Corning Costar Cat No. 3595, Amsterdam, The Netherlands). The plates were incubated at 37 °C for 24 h to form a biofilm. Culture treated with water served as a positive control while media without bacterial inoculation served as the negative control. Media were then pipetted out and the attached biofilms were washed with 1× PBS to remove the planktonic bacteria. Each well of the plate was then filled with 20 μL of 10× peptide solution and 180 μL of fresh TSB media and the plates were further incubated at 37 °C for 24 h. Media were then pipetted out and the wells were washed with 1× PBS to remove planktonic cells. The live cells in biofilms were estimated by XTT assay as mentioned above."}, "S. aureus USA300": {"tested_on": "S. aureus USA300", "assay_type": "cell-based, Staphylococcus aureus", "conditions": "USA300", "summary_of_the_method": "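Broth microdilution: log-phase cultures diluted to OD600 ~0.001 received two-fold serial peptide dilutions and were incubated overnight at 37 °C, with growth read at 630 nm. MBC was the lowest concentration giving no growth when clear wells at or above MIC were plated.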"}, "S. aureus USA300 LAC [3]": {"tested_on": "S. aureus USA300 LAC", "assay": "Membrane depolarization, DiBAC4(3)", "assay_type": "cell-based, Staphylococcus aureus", "conditions": "12.5 µM", "procedure": "Bacteria surfaces are negative and cationic peptides are able to neutralize the negative charge, thereby reducing membrane potential. To test this possibility, we evaluated the peptides against S. aureus USA300 LAC using a fluorescent indicator dye, the DiBAC4(3) (Figure 5).\nThe overnight culture of S. aureus USA300 LAC was grown in TSB media to the exponential phase. Cells were then pelleted and washed with PBS twice, and re-suspended in twice the volume of PBS containing 25 mM glucose for 15 min at 37 °C. For membrane depolarization measurements, 250 nM (final concentration) of the dye DiBAC4(3) (bis-(1,3-dibutylbarbituric acid) trimethine oxonol (ANASPEC, Fremont, CA, USA) was added, and vortexed gently. Ninety microliters of the energized bacteria solution were then added in a 96-well microtiter plate (Corning COSTAR). The plate was immediately placed into a FLUOstar Omega (BMG LABTECH Inc., Cary, NC, USA) microplate reader and fluorescence was measured for 20 min. Once the readings are stabilized, 10 μL of peptide solution were added and the fluorescence readings were continued for another 40 min. Measurements were done at an excitation and emission wavelengths of 485 and 520 nm, respectively. Triton X-100 (0.1%) was included as a positive control."}, "[4]": {"assay": "HPLC retention time measurement (reverse-phase C18)", "assay_type": "physicochemical", "procedure": "The retention time of the peptide was measured on a Waters HPLC system equipped with an analytical reverse-phase WATERS C18 column (4.6 × 250 mm). The peptide detected at 220 and 280 nm was eluted with a gradient of acetonitrile (containing 1% TFA) from 5% to 95% at a flow rate of 1 mL/min [22]."}},
  "note": "No end group written: not given here.",
  "data": [
    {"sequence": "RKIWWWWL [WW295]", "values": [
      {"measurement": "Minimal Inhibitory Concentration (MIC), KP", "setting": "K. pneumonia ATCC 13883", "value": "3.1 to 6.2", "unit": "µM"},
      {"measurement": "effect on surface adherence of MRSA (in words)", "setting": "S. aureus USA300 LAC [1]", "value": "did not show any effects"},
      {"measurement": "Minimal Inhibitory Concentration (MIC), SA", "setting": "S. aureus Mu50", "value": 12.5, "unit": "µM"},
      {"measurement": "disruption of established biofilms (24 h)", "setting": "S. aureus USA300 LAC [2]", "value": "did not disrupt MRSA biofilms significantly"},
      {"measurement": "MBC, USA300", "setting": "S. aureus USA300", "value": 12.5, "unit": "µM"},
      {"measurement": "membrane depolarization (DiBAC4(3) fluorescence)", "setting": "S. aureus USA300 LAC [3]", "value": "less active in depolarizing the membranes"},
      {"measurement": "hydrophobicity implied by retention time (in words)", "setting": "[4]; reverse-phase HPLC C18", "value": "slightly higher hydrophobicity"},
      {"measurement": "HPLC (tr, min)", "setting": "[4]; reverse-phase Waters C18 4.6 × 250 mm, acetonitrile (1% TFA) gradient 5% to 95%, 1 mL/min, detection 220 and 280 nm, taken as measure of hydrophobicity", "value": 12.453, "unit": "min"}
    ]}
  ]
}
